The text below walks through data of BindingDB's records for doi:10.1021/jm0503087 (Conforma Therapeutics, 2006).

pEC50: −log10 of the molar value.

Heat shock protein HSP 90-beta, sequence (P08238 whole entry): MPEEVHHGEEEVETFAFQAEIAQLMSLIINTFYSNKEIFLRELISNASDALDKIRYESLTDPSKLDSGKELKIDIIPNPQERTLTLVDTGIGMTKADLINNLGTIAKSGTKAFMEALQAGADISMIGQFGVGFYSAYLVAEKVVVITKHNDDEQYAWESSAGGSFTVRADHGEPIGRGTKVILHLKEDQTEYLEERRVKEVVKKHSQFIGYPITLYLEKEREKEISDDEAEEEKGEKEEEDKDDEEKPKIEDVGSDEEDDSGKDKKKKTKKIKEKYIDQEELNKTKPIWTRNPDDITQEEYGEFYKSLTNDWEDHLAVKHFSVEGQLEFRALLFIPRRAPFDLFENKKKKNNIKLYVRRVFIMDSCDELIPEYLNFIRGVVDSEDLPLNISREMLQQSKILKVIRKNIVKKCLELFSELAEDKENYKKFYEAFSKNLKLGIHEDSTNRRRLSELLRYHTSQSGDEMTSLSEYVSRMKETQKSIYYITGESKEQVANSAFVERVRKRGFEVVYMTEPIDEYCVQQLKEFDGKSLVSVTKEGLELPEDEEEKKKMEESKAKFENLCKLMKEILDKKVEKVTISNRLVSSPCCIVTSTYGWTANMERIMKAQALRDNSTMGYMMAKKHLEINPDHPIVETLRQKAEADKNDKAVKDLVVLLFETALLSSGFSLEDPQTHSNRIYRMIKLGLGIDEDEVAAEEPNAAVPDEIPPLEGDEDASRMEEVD

The assay addresses Heat shock protein HSP 90-beta (Homo sapiens, UniProt P08238). Description: Her-2 Degradation Assay. The settings on record: pH 7.2; 37 °C.
Experimental: A fluorescence histogram was generated, and the mean fluorescence intensity (MFI) of each sample was determined using Cellquest software.
Compound `COc1ccc(I)c(Sc2nc3c(N)ncnc3n2CCNCC(C)C)c1` [8-[(2-iodo-5-methoxyphenyl)sulfanyl]-9-{2-[(2-methylpropyl)amino]ethyl}-9H-purin-6-amine] had a pEC50 of 7.00. The result for `CCCCn1c(Cc2cc(OC)ccc2OC)nc2c(N)ncnc21` [PU7] reads 4.92; that for `CCCCn1c(Cc2cc(OC)ccc2Cl)nc2c(N)ncnc21` [9-butyl-8-[(2-chloro-5-methoxyphenyl)methyl]-9H-purin-6-amine], 4.70. The result for `CCCCn1c(Sc2cc(OC)ccc2OC)nc2c(N)ncnc21` [9-butyl-8-[(2,5-dimethoxyphenyl)sulfanyl]-9H-purin-6-amine] reads 5.46; that for `COc1ccc(I)c(Sc2nc3c(N)ncnc3n2CCC=C(C)C)c1` [8-[(2-iodo-5-methoxyphenyl)sulfanyl]-9-(4-methylpent-3-en-1-yl)-9H-purin-6-amine], 6.43. `CCC(CC)NCCCn1c(Sc2cc(OC)ccc2I)nc2c(N)ncnc21` [8-[(2-iodo-5-methoxyphenyl)sulfanyl]-9-[3-(pentan-3-ylamino)propyl]-9H-purin-6-amine] showed a pEC50 of 6.68.

Compound `CCCCn1c(Cc2cc(OC)ccc2I)nc2c(N)ncnc21` [9-butyl-8-[(2-iodo-5-methoxyphenyl)methyl]-9H-purin-6-amine] had a pEC50 of 5.30.

Compound `COc1ccc(I)c(Sc2nc3c(N)ncnc3n2CCCNC(C)(C)C)c1` had a pEC50 of 6.85. The figure for `CCCCn1c(Cc2cc(OC)ccc2Br)nc2c(N)ncnc21` [8-[(2-bromo-5-methoxyphenyl)methyl]-9-butyl-9H-purin-6-amine] is 5.10; for `C#CCCCn1c(Sc2cc(OC)ccc2I)nc2c(N)nc(F)nc21` [2-fluoro-8-[(2-iodo-5-methoxyphenyl)sulfanyl]-9-(pent-4-yn-1-yl)-9H-purin-6-amine] it is 6.44; for `COc1ccc(I)c(Sc2nc3c(N)ncnc3n2CCCNC(C)C)c1` [8-[(2-iodo-5-methoxyphenyl)sulfanyl]-9-[3-(propan-2-ylamino)propyl]-9H-purin-6-amine] it is 6.74. `CCC(C)NCCCn1c(Sc2cc(OC)ccc2I)nc2c(N)ncnc21` (configuration not stated) [9-[3-(butan-2-ylamino)propyl]-8-[(2-iodo-5-methoxyphenyl)sulfanyl]-9H-purin-6-amine] showed a negative-log EC50 (pEC50) of 6.68.
